Measured values reported in the NIST ThermoML archive (doi:10.1016/j.jct.2014.03.005).
Where “and” joins values, the source holds several entries; their conditions need not be identical. Equal entries are not always repeated. ± gives the expanded uncertainty stated by the source.

Legend:
[1] = Crystal; for vapor or sublimation pressure: Calculated from knudsen effusion weight loss; for Normal melting temperature: DTA
[2] = Molar enthalpy of transition or fusion; conditions: Crystal; DSC
[3] = molar enthalpy of vaporization or sublimation; conditions: 298.15 K; Crystal; Static calorimetry

Nc1ccc2c(c1)Cc1ccccc1-2 [2-aminofluorene]
[1]
Conditions | vapor or sublimation pressure
345.16 K | 0.000121 ± 1.3e-05 kPa and 0.00012 ± 1.3e-05 kPa and 0.000118 ± 1.3e-05 kPa
347.13 K | 0.000155 ± 1.6e-05 kPa and 0.000154 ± 1.6e-05 kPa and 0.000148 ± 1.6e-05 kPa
349.17 K | 0.000189 ± 2e-05 kPa and 0.000182 ± 1.9e-05 kPa and 0.00019 ± 2e-05 kPa
351.15 K | 0.000238 ± 2.5e-05 kPa and 0.000226 ± 2.4e-05 kPa
353.1 K | 0.000286 ± 3e-05 kPa and 0.000283 ± 3e-05 kPa and 0.000291 ± 3.1e-05 kPa
355.17 K | 0.00035 ± 3.7e-05 kPa and 0.000348 ± 3.7e-05 kPa and 0.000362 ± 3.8e-05 kPa
357.13 K | 0.000447 ± 4.7e-05 kPa and 0.000436 ± 4.6e-05 kPa and 0.000432 ± 4.6e-05 kPa
359.16 K | 0.000546 ± 5.8e-05 kPa and 0.000522 ± 5.5e-05 kPa and 0.000551 ± 5.8e-05 kPa
361.13 K | 0.000675 ± 7.2e-05 kPa and 0.000647 ± 6.9e-05 kPa and 0.000664 ± 7e-05 kPa
363.1 K | 0.000811 ± 8.6e-05 kPa and 0.000789 ± 8.4e-05 kPa and 0.000805 ± 8.5e-05 kPa
365.09 K | 0.000994 ± 0.00011 kPa and 0.000997 ± 0.00011 kPa and 0.000981 ± 0.0001 kPa

Conditions | Molar enthalpy of transition or fusion [kcal/mol] | Normal melting temperature [°C] | molar enthalpy [kcal/mol]
[1] | – | 127.79 ± 0.39 | –
[2] | 5.69 ± 0.129 | – | –
[3] | – | – | 26.4 ± 0.43

O=[N+]([O-])c1ccc2c(c1)Cc1ccccc1-2 [2-nitro-9H-fluorene]
[1]
Conditions | vapor or sublimation pressure
357.16 K | 9e-05 ± 1e-05 kPa and 9.2e-05 ± 1e-05 kPa
359.13 K | 0.000115 ± 1.2e-05 kPa and 0.000114 ± 1.2e-05 kPa and 0.000111 ± 1.2e-05 kPa
361.11 K | 0.000141 ± 1.5e-05 kPa and 0.000139 ± 1.5e-05 kPa and 0.00014 ± 1.5e-05 kPa
363.16 K | 0.000172 ± 1.8e-05 kPa and 0.00017 ± 1.8e-05 kPa
365.14 K | 0.000217 ± 2.3e-05 kPa and 0.000209 ± 2.2e-05 kPa and 0.000213 ± 2.3e-05 kPa
367.11 K | 0.000261 ± 2.8e-05 kPa and 0.000258 ± 2.7e-05 kPa
369.16 K | 0.000315 ± 3.3e-05 kPa and 0.000322 ± 3.4e-05 kPa
371.13 K | 0.000398 ± 4.2e-05 kPa and 0.000377 ± 4e-05 kPa and 0.000392 ± 4.2e-05 kPa
373.1 K | 0.000478 ± 5.1e-05 kPa and 0.000472 ± 5e-05 kPa and 0.000474 ± 5e-05 kPa
375.15 K | 0.000565 ± 6e-05 kPa and 0.000561 ± 6e-05 kPa and 0.000578 ± 6.1e-05 kPa
377.14 K | 0.000696 ± 7.4e-05 kPa and 0.000707 ± 7.5e-05 kPa and 0.000678 ± 7.2e-05 kPa
379.12 K | 0.000839 ± 8.9e-05 kPa and 0.000844 ± 9e-05 kPa and 0.000829 ± 8.8e-05 kPa

Conditions | Molar enthalpy of transition or fusion [kcal/mol] | Normal melting temperature [°C] | molar enthalpy [kcal/mol]
[1] | – | 156.74 ± 0.71 | –
[2] | 5.92 ± 0.134 | – | –
[3] | – | – | 27.3 ± 0.598
